Test results published in ChEMBL document CHEMBL6121063, “Identification of a Potent and Selective CDK9 Degrader as a Targeted Therapeutic Option for the Treatment of Small-Cell Lung Cancer” (J Med Chem, 2025).
Values after ≈ are worked out from the molar mass of the structure shown.

Columns and labels:
[1] = target: T1, Protein cereblon/Cyclin-dependent kinase 9 (Homo sapiens, UniProt P50750+Q96SW2); experiment: PROTAC activity at CRBN/CDK9 in human NCI-H446 cells assessed as induction of CDK9 degradation at 10 nM by Western blot analysis relative to control; format: cell-based
Target sequence in this assay (P50750 whole entry, looked up): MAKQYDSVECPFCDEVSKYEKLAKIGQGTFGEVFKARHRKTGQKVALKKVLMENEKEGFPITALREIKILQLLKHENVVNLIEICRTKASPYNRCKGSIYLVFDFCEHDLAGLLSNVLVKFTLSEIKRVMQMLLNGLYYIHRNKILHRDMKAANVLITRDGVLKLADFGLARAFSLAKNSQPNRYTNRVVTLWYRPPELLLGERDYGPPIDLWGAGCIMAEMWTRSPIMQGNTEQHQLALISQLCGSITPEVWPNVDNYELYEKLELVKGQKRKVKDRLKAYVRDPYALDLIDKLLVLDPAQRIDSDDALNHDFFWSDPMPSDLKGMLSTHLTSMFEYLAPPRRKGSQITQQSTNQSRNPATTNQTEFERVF
Target sequence in this assay (Q96SW2 whole entry, looked up): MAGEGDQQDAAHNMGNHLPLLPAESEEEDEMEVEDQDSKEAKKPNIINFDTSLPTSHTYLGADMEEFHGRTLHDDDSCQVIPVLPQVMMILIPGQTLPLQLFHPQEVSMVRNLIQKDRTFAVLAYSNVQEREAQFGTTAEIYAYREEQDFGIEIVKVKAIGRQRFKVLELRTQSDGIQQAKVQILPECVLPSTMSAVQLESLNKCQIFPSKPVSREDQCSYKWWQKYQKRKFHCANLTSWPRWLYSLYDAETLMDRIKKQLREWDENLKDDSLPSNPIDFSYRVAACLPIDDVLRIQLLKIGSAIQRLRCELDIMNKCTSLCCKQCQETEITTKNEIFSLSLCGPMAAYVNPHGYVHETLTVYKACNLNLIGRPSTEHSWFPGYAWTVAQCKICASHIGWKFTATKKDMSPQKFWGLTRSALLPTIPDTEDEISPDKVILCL

[2] = target: T1, Protein cereblon/Cyclin-dependent kinase 9; experiment: PROTAC activity at CRBN/CDK9 in human NCI-H69 cells assessed as induction of CDK9 degradation at 10 nM by Western blot analysis relative to control; format: cell-based
Target sequence in this assay (P50750 whole entry, looked up): as the sequence (P50750 whole entry, looked up) above
Target sequence in this assay (Q96SW2 whole entry, looked up): as the sequence (Q96SW2 whole entry, looked up) above

NCI-H446 = experiment: Antiproliferative activity against human NCI-H446 cells assessed as inhibition of cell growth incubated for 72 hrs by CCK8 assay; format: functional, cell-based; conditions: NCI-H446, 72 h
NCI-H69 [3] = experiment: Antiproliferative activity against human NCI-H69 cells assessed as inhibition of cell growth incubated for 72 hrs by CCK8 assay; format: functional, cell-based; conditions: NCI-H69, 72 h
[4] = target: T1, Protein cereblon/Cyclin-dependent kinase 9; experiment: PROTAC activity at CRBN/CDK9 in human NCI-H69 cells assessed as induction of CDK9 degradation incubated for 8 hrs by Western blot analysis; format: cell-based
[5] = Metabolic stability in human liver microsomes assessed as half-life; format: ADME, Microsome
[6] = Metabolic stability in human liver microsomes assessed as intrinsic clearance; format: ADME, Microsome
[7] = Metabolic stability in mouse liver microsomes assessed as intrinsic clearance; format: ADME, Microsome
[8] = Metabolic stability in mouse liver microsomes assessed as parent compound remaining measured after 60 mins; format: ADME, Microsome; conditions: read-out: Stability
[9] = Metabolic stability in human liver microsomes assessed as parent compound remaining measured after 60 mins; format: ADME, Microsome; conditions: read-out: Stability
[10] = Metabolic stability in mouse liver microsomes assessed as half-life; format: ADME, Microsome
[11] = Kinetic solubility of compound in FeSSIF buffer incubated for 2 hrs by LC-MS/MS analysis; format: physicochemical; conditions: read-out: Kinetic_solubility
NCI-H69 [12] = experiment: Induction of apoptosis in human NCI-H69 cells assessed as decrease in MCL-1 expression incubated for 36 hrs by Western blot analysis; format: functional, cell-based
[13] = target: Cyclin-dependent kinase 1/cyclin B1 (Homo sapiens) (UniProt P06493+P14635); experiment: Inhibition of CDK1/cyclin B1 (unknown origin) at 10 nM relative to control; format: protein-complex assay
[14] = target: Cyclin-dependent kinase 4/cyclin D1 (Homo sapiens) (UniProt P11802+P24385); experiment: Inhibition of CDK4/cyclin D1 (unknown origin) at 10 nM relative to control; format: protein-complex assay
[15] = target: CDK6/cyclin D3 (Homo sapiens) (UniProt P30281+Q00534); experiment: Inhibition of CDK6/cyclin D3 (unknown origin) at 10 nM relative to control; format: protein-complex assay
[16] = target: Cyclin-dependent kinase 13/Cyclin-K (Homo sapiens) (UniProt Q14004+O75909); experiment: Inhibition of CDK13/Cyclin K (unknown origin) at 10 nM relative to control; format: protein-complex assay
[17] = target: CDK4/Cyclin D3 (Homo sapiens) (UniProt P11802+P30281); experiment: Inhibition of CDK4/cyclin D3 (unknown origin) at 10 nM relative to control; format: protein-complex assay
[18] = target: CDK3/Cyclin E (Homo sapiens) (UniProt P24864+Q00526); experiment: Inhibition of CDK3/cyclin E1 (unknown origin) at 10 nM relative to control; format: protein-complex assay
NCI-H69 [19] = experiment: Induction of apoptosis in human NCI-H69 cells assessed as increase in cleaved caspase-3 level incubated for 36 hrs by Western blot analysis; format: functional, cell-based
[20] = target: CDK12/Cyclin K (Homo sapiens) (UniProt O75909+Q9NYV4); experiment: Inhibition of CDK12/Cyclin K (unknown origin) at 10 nM relative to control; format: protein-complex assay
[21] = target: CDK9/cyclin T1 (Homo sapiens) (UniProt O60563+P50750); experiment: Inhibition of CDK9/Cyclin T1 (unknown origin) at 10 nM relative to control; format: protein-complex assay
NCI-H69 [22] = experiment: Induction of apoptosis in human NCI-H69 cells assessed as increase in p53 level incubated for 36 hrs by Western blot analysis; format: functional, cell-based
[23] = target: CDK6/cyclin D1 (Homo sapiens) (UniProt P24385+Q00534); experiment: Inhibition of CDK6/cyclin D1 (unknown origin) at 10 nM relative to control; format: protein-complex assay
[24] = target: T2, Cyclin-dependent kinase 5/CDK5 activator 1 (Homo sapiens) (UniProt Q00535+Q15078); experiment: Inhibition of CDK5/p25NCK (unknown origin) at 10 nM relative to control; format: protein-complex assay
NCI-H69 [25] = experiment: Induction of apoptosis in human NCI-H69 cells assessed as decrease in BCL-2 expression incubated for 36 hrs by Western blot analysis; format: functional, cell-based
[26] = target: T2, Cyclin-dependent kinase 5/CDK5 activator 1 (Homo sapiens); experiment: Inhibition of CDK5/p35NCK (unknown origin) at 10 nM relative to control; format: protein-complex assay
NCI-H69 [27] = experiment: Induction of apoptosis in human NCI-H69 cells assessed as increase in cleaved PARP level incubated for 36 hrs by Western blot analysis; format: functional, cell-based
[28] = liver microsomes, read-out: CLH

T2 sequence (Q00535 whole entry): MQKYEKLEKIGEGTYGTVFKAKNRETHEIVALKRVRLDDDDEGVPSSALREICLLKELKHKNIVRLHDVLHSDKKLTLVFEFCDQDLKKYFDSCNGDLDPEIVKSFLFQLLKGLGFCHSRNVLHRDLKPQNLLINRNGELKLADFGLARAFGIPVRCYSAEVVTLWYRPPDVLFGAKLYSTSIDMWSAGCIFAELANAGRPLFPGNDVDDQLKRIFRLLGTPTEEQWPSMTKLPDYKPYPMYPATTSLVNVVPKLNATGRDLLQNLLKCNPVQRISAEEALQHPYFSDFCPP
T2 sequence (Q15078 99-307 partner limits assumed): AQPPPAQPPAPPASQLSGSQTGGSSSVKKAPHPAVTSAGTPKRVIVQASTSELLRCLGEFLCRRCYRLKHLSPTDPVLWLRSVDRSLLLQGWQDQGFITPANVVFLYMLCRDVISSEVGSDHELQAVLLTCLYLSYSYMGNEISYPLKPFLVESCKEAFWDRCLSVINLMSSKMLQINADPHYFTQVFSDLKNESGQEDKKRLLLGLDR
Chain of CDK3/Cyclin E (Homo sapiens) (P24864 whole entry, looked up): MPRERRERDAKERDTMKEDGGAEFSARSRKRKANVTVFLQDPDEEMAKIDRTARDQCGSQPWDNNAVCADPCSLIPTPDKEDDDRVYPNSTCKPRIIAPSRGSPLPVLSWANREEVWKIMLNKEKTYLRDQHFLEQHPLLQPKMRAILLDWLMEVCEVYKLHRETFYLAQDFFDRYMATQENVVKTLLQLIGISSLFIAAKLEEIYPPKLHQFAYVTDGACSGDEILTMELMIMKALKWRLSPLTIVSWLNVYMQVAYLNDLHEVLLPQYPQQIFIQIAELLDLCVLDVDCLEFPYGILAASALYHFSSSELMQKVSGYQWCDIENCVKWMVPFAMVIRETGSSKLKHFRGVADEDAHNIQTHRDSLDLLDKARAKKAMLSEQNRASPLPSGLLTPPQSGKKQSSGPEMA
Chain of CDK3/Cyclin E (Homo sapiens) (Q00526 whole entry, looked up): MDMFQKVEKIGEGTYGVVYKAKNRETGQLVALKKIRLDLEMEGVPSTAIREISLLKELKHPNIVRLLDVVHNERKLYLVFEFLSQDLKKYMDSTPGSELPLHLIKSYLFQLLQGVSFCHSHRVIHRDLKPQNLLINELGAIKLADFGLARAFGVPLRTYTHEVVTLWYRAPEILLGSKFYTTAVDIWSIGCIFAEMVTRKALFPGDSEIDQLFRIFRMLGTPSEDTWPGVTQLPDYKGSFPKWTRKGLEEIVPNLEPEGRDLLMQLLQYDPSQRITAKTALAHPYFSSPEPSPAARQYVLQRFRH
Chain of Cyclin-dependent kinase 1/cyclin B1 (Homo sapiens) (P06493 whole entry, looked up): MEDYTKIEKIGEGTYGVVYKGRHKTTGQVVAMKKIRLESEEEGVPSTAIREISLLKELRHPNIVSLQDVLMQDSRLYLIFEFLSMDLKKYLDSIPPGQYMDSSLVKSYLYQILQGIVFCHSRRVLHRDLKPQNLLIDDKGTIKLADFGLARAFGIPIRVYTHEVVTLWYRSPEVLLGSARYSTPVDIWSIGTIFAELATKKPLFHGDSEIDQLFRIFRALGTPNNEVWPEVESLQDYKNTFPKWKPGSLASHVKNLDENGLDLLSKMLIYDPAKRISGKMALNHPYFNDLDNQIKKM
Chain of Cyclin-dependent kinase 1/cyclin B1 (Homo sapiens) (P14635 whole entry, looked up): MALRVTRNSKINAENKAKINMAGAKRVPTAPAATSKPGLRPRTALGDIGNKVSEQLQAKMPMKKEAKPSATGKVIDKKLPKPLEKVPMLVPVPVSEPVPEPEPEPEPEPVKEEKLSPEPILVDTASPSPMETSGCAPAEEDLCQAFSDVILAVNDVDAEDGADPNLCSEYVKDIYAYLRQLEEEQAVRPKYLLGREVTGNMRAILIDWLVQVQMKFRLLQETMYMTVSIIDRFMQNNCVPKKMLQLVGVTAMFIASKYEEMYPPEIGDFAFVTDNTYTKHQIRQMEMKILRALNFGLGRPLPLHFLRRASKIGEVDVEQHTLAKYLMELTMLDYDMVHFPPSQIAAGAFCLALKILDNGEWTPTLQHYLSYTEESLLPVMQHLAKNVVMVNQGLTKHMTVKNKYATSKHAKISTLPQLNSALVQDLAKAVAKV
Chain of CDK12/Cyclin K (Homo sapiens) (O75909 whole entry, looked up): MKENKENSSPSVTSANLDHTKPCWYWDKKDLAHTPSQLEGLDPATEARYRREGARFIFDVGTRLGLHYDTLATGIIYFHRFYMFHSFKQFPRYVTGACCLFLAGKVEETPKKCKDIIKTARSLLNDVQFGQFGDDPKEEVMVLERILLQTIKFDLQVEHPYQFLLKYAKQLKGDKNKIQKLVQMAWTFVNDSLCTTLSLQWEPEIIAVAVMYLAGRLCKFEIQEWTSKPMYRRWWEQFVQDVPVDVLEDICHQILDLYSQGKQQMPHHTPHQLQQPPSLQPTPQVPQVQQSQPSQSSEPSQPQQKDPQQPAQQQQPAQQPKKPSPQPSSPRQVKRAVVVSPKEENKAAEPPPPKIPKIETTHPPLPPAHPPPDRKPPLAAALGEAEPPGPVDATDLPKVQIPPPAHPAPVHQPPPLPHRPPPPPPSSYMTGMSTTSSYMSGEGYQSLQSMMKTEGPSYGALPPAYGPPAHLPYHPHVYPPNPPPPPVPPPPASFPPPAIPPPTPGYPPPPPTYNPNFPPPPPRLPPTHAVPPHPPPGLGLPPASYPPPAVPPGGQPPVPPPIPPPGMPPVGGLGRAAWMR
Chain of CDK12/Cyclin K (Homo sapiens) (Q9NYV4 whole entry, looked up): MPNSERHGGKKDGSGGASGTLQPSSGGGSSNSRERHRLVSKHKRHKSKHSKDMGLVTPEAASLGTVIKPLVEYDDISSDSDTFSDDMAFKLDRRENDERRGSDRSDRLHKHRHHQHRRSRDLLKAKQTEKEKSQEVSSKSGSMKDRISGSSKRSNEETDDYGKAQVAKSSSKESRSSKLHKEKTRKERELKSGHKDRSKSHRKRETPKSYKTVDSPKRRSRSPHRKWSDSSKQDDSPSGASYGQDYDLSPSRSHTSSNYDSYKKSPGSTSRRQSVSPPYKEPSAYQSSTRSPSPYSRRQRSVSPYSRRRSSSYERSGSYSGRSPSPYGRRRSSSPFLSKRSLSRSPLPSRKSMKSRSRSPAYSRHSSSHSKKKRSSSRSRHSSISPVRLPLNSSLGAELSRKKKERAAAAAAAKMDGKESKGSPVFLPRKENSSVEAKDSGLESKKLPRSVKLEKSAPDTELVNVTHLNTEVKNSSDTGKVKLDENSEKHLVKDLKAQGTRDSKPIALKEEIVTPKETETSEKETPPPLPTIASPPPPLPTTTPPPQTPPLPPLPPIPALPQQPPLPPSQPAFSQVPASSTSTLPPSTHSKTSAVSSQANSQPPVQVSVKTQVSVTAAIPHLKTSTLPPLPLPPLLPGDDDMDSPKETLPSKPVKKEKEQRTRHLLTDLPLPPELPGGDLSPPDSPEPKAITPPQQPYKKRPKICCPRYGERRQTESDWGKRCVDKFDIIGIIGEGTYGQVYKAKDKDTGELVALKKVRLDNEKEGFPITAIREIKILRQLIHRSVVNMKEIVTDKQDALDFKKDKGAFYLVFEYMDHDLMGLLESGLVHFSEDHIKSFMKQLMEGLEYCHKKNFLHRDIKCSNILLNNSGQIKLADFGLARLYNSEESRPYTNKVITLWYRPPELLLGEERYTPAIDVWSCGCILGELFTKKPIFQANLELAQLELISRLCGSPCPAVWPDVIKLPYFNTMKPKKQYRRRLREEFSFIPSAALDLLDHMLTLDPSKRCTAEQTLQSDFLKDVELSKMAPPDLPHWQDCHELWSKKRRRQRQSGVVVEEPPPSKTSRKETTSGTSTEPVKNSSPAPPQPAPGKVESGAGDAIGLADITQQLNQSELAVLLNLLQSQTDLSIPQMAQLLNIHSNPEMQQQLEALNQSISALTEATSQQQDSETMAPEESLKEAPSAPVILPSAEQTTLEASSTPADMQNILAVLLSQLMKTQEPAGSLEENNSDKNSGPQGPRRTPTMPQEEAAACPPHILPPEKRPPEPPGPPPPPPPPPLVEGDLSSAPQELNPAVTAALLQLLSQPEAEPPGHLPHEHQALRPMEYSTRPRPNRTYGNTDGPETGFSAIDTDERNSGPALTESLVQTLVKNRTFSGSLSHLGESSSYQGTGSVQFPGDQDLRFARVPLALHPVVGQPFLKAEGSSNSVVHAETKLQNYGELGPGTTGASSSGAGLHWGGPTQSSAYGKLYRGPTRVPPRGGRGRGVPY

Row | SMILES | Activity [1] [%] | Activity [2] [%] | IC50 (NCI-H446) [nM] | IC50 (NCI-H69 [3]) [nM] | further results
1 | CN1C(=O)CCC(Nc2cccc(N3CCN(CC4CCN(CC(=O)N5CCC(NC(=O)c6n[nH]cc6NC(=O)c6c(Cl)cccc6Cl)CC5)CC4)CC3)c2)C1=O (stereo unspecified) | 3.15 | 12.3 | 592 | 501 | 
2 | O=C1CCC(Nc2ccc(N3CCN(CC4CCN(CC(=O)N5CCC(NC(=O)c6n[nH]cc6NC(=O)c6c(Cl)cccc6Cl)CC5)CC4)CC3)c(F)c2)C(=O)N1 (stereo unspecified) | 79.3 | 66.1 | 56.1 | 44.2 | 
3 | O=C1CCC(N2C(=O)c3ccc(N4CCN(CC5CCN(C(=O)CN6CCC(NC(=O)c7n[nH]cc7NC(=O)c7c(Cl)cccc7Cl)CC6)CC5)CC4)cc3C2=O)C(=O)N1 (stereo unspecified) | 78.2 | 88.4 | 3.7 | 6.46 | DC50 [4]: 4.5 nM; half-life ([5]; liver microsomes): 6.17 min; microsomal CLint [6, 28]: 225 µL/min/mg; microsomal CLint [7, 28]: 16.4 µL/min/mg; remaining at 1 h [8]: 61.2%; remaining at 1 h [9]: 3.2%; half-life ([10]; liver microsomes): 84.5 min
4 | O=C1CCC(N2C(=O)c3ccc(N4CCN(C(=O)CCCC(=O)N5CCC(NC(=O)c6n[nH]cc6NC(=O)c6c(Cl)cccc6Cl)CC5)CC4)cc3C2=O)C(=O)N1 (stereo unspecified) | 3.22 | 3.8 | 352 | 261 | 
5 | O=C1CCC(N2C(=O)c3ccc(N4CC5CN(CC(=O)N6CCC(NC(=O)c7n[nH]cc7NC(=O)c7c(Cl)cccc7Cl)CC6)CC5C4)cc3C2=O)C(=O)N1 (stereo unspecified) | 38.9 | 49.4 | 156 | 142 | 
6 | O=C(O)Cc1ccccc1Nc1c(Cl)cccc1Cl [DICLOFENAC] |  |  |  |  | solubility kinetic at 2 h [11]: 316 µM (≈ 93.6 µg/mL)
7 | Cc1ncc2n1-c1ccc(Cl)cc1C(c1ccccc1F)=NC2 [MIDAZOLAM] |  |  |  |  | t1/2 ([5]; microsomes): 2.9 min; CLH ([6]; microsomes): 1200 µL/min/mg; CLH ([7]; microsomes): 1270 µL/min/mg; t1/2 ([10]; microsomes): 2.72 min
8 | O=C(NC1CCNCC1)c1n[nH]cc1NC(=O)c1c(Cl)cccc1Cl [AT-7519] |  |  | 173 | 186 | Activity (NCI-H69 [12]): Dose-dependent-effect; inhibition [13]: 31%; inhibition [14]: 36%; inhibition [15]: 20%; inhibition [16]: 36%; inhibition [17]: 47%; inhibition [18]: 16%; Activity (NCI-H69 [19]): Dose-dependent-effect; inhibition [20]: 29%; inhibition [21]: 79%; Activity (NCI-H69 [22]): Dose-dependent-effect; inhibition [23]: 34%; inhibition [24]: 26%; Activity (NCI-H69 [25]): Dose-dependent-effect; inhibition [26]: 20%; Activity (NCI-H69 [27]): Dose-dependent-effect
9 | O=C1CCC(N2C(=O)c3cccc(NCCCCCN4CCC(NC(=O)c5n[nH]cc5NC(=O)c5c(Cl)cccc5Cl)CC4)c3C2=O)C(=O)N1 (stereo unspecified) | 12.8 | 8.01 | 136 | 217 | 
10 | O=C1CCC(N2C(=O)c3cccc(NCCCCCCCN4CCC(NC(=O)c5n[nH]cc5NC(=O)c5c(Cl)cccc5Cl)CC4)c3C2=O)C(=O)N1 (stereo unspecified) | 21.3 | 10.6 | 62.9 | 179 | 
11 | O=C1CCC(N2C(=O)c3cccc(NCCCCCCN4CCC(NC(=O)c5n[nH]cc5NC(=O)c5c(Cl)cccc5Cl)CC4)c3C2=O)C(=O)N1 (stereo unspecified) | 39.4 | 34 | 54.2 | 95.3 | 
12 | O=C1CCC(N2C(=O)c3ccc(N4CCN(C(=O)CCC(=O)N5CCC(NC(=O)c6n[nH]cc6NC(=O)c6c(Cl)cccc6Cl)CC5)CC4)cc3C2=O)C(=O)N1 (stereo unspecified) | 31.8 | 39.1 | 31.7 | 42.5 | 
